The record followed here is patent US5008252A, “Process for inhibiting herpes simplex virus-specified thymidine kinase” (The University of North Carolina at Chapel Hill, priority 1987, dated 1991).

Data set [1] relates to mock infected HeLa S3 cells. Kind of data set: Intracellular dThd phosphorylation. The note with it: increasing amounts of 5'-Et-dThd. The data set is classed as cell-based. As to the method:
(§1) Intracellular dThd kinase activity. HeLa S3 or HeLa BU cells (1.5×10^6 /ml) were mock infected or infected with HSV-1 or HSV-2at 3 PFU/cell and incubated at 37° C. for a 1 h adsorption period. The medium was then removed, and the cells were washed with growth medium and resuspended at a cell density of 5×10^5 cells/ml in RPMI 1640 medium supplemented with kanamycin (100 μg/ml) and 5% dialyzed fetal bovine serum. At 9 h post-HSV infection, [14C]dThd (0.16 μCi/ml; 1 μM dThd) and different amounts of 5'-Et-dThd were added to the medium depending on experimental conditions. At the end of the labeling period (1 h), the cells were pelleted by centrifugation, washed with phosphate-buffered-saline (PBS) and resuspended in a small volume of PBS. Aliquots were then pipetted directly onto DE81 discs which were immediately washed in 100% EtOH. The DE81 discs were washed two additional times in 100% EtOH, and then radioactivity associated with the discs was measured by scintillation counting in 5 ml of aqueous counting fluid. In this manner, total intracellular dThd kinase activity was determined from the sum of radioactive acid soluble dThd nucleotides plus the acid insoluble dTMP associated with DNA, both precipitated directly on the DE81 discs.

Data set [2] has as its system HSV-1-infected HeLa S3 cells. As to the kind of experiment: Intracellular dThd phosphorylation. The data set is classed as cell-based. To be noted: 25 μM, 9 h post infection, 1 h labeling. As for the experimental part: as §1
The target in another data set is T1, HSV-2 (333) dThd kinase (Human herpesvirus 2, UniProt P04407).
T1 construct: kinases were extracted from dThd kinase-deficient HeLa BU cells infected with HSV-1 (strain KOS) and HSV-2(strain 333); endogenous in cells; host or cells: HeLa BU cells (dThd kinase deficient) infected with HSV-2 (strain 333)
Kind of data set: dThd kinase assay in vitro. The data set is classed as biochemical, HSV-2 (strain 333). The source says: (§2) Enzyme purification, enzyme assays, IC50 and Ki determinations. The cellular cytosolic dThd kinase used to determine the Ki values was isolated from KB6B cells. The HSV-1 and HSV-2dThd kinases were extracted from dThd kinase-deficient HeLa BU cells infected with HSV-1 (strain KOS) and HSV-2(strain 333), respectively. All of the dThd kinases were purified using affinity column chromatography procedures described by Lee, L. S. and Cheng, Y.-C. (J. Biol. Chem. 251:2600-2604 (1976)). The dThd kinase assay used was the same as that described by Cheng, Y.-C. & Ostrander, M. (J. Biol. Chem. 251:2605-2610 (1976)). Incubations were conducted at 37° C. for 60 min and the Ki and 50% […] concentration (IC50) values were determined as described by Cheng, Y.-C. and Prusoff, W. H. (Biochem. Pharmacol. 22:3099-3108 (1976)).

Data set [3] deals with HSV-1 B3 dThd kinase (BVDU resistant variant) (Human alphaherpesvirus 1 strain SC16, UniProt P06479). As to the kind of experiment: dThd kinase assay in vitro, enzyme extracts. The data set is classed as biochemical, HSV-1 (strain B3). To be noted: enzyme extracts of infected HeLa BU cells, 100 μM dThd. As for the experimental part:
Virus stocks. The viruses used were HSV-1 (strains KOS, SC16, B3 and Tr7) and HSV-2(strain 333). dThd kinase mutants of HSV (SC16), B3 and Tr7, were isolated in the presence of (E)-5-(2-bromovinyl)-2'-deoxyuridine (BVDU) at 10 μg/ml and ACV at 1 μg/ml, respectively (Darby, G., Field, H.J. & Salisbury, S. A. (1982) Nature (London) 289:81-83; Field, H.J & Neden J. (1982) Antiviral Res. 2:243254).
as §2

The next data set deals with T2, host dTMP kinase (Homo sapiens, UniProt P23919).
T2 construct: endogenous in cells; host or cells: HSV-2 (333)-infected HeLa BU cells, extract
Kind of data set: dTMP (thymidylate) kinase assay, crude extracts of HSV-2 (333)-infected HeLa BU cells. The data set is classed as biochemical. To be noted: 25 μM dTMP substrate, read-out: IC50 of dTMP kinase (reflects host dTMP kinase activity). As to the method:
The thymidylate kinase and synthase assays were performed according to known procedures (see, Cheng, Y.-C. & Prusoff, W. H. (1974) Anal. Biochem. 60:545-550; Roberts, D. (1966) Biochemistry 5:3546-3548; Dolnick, B. J. & Cheng, Y. C. (1977) J. Biol. Chem. 252:7697-7703). dThd phosphorylase activity was determined by monitoring conversion of [^14 C]dThd to [14 C] thymine using high performance liquid chromatography (HPLC). Briefly, after a 30 min incubation of enzyme extract with radiolabeled dThd at 37° C., the reaction was stopped by addition of 25% trichloroacetic acid. After neutralization and centrifugation, the supernatants were loaded on to an Alltech Lichrosorb RP-18 column, and the column was eluted at a rate of 1 ml/min with 5 mM KH2 PO4 (pH 3.5)--10% methanol. Fractions of 1 ml were collected and radioactivity associated with dThd and thymine (as previously determined by retention times of authentic markers measured by their absorbance at 265 nm) was measured by scintillation counting. For evaluation of whether 5'-Et-dThd could serve substrate for dThd phosphorylase, reactions were carried out as described as above, except that 5'-Et-dThd was used instead of [^14 C]dThd; metabolites were then analyzed by HPLC as described above.

The target in data set [4] is T3, HSV-2 (333) dThd kinase in infected HeLa BU cells (Human herpesvirus 2, UniProt P04407).
T3 construct: kinases were extracted from dThd kinase-deficient HeLa BU cells infected with HSV-1 (strain KOS) and HSV-2(strain 333); endogenous in cells; host or cells: HeLa BU cells (dThd kinase deficient) infected with HSV-2 (strain 333)
Kind of data set: Intracellular dThd kinase activity ([14C]dThd phosphorylation). The data set is classed as cell-based, HSV-2 (strain 333). As for the experimental part:
as §1

Data set [5] relates to HSV-1 (strain KOS)-infected HeLa BU cells. As to the kind of experiment: Virus yield assay. The data set is classed as cell-based. As for the experimental part:
Cell and virus growth inhibition. Cell growth inhibition and the virus yield assay were performed in accordance with the protocol described by Cheng, Y.-C., Grill, S.P., Ruth, J. and Bergstrom, D. E. (Antimicrob. Agents Chemother. 18:957-961 (1980)) with the exceptions that all studies were done using 5% dialyzed fetal bovine serum; the multiplicity of infection was 3 PFU/cell and Vero cells were used instead of CV-1 cells for titration in the virus yield assays.

The test system of data set [6] is mammalian host DNA synthesis. As to the kind of experiment: Host DNA synthesis by 32PO4 incorporation. The data set is classed as cell-based. To be noted: 100 μM.

Where “and” joins values, the source holds several entries; their conditions need not be identical. Equal values may be shown once.

T1 sequence (P04407 whole entry): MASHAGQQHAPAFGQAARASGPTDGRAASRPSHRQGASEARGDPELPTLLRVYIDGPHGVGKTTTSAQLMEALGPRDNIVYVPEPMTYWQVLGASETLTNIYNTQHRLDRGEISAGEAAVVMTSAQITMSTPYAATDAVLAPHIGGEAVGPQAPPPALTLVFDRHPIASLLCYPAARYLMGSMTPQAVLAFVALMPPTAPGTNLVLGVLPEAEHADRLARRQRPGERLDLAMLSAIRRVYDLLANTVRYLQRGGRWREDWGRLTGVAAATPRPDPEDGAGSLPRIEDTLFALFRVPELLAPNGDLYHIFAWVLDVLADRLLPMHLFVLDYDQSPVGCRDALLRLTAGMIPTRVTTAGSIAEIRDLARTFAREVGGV
T3 sequence (P04407 whole entry): as above
HSV-1 B3 dThd kinase (BVDU resistant variant), sequence (P06479 whole entry, looked up, stated change not applied): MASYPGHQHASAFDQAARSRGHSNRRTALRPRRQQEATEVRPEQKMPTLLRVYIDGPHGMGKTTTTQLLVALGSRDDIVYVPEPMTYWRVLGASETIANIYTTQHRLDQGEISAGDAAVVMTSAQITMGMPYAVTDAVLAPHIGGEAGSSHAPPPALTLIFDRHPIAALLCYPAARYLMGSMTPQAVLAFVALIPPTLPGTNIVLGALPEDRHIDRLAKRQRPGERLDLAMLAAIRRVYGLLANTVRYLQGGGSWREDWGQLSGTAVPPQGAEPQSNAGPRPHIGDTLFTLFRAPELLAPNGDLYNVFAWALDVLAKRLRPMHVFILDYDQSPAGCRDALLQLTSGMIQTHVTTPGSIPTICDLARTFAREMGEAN
T2 sequence (P23919 whole entry): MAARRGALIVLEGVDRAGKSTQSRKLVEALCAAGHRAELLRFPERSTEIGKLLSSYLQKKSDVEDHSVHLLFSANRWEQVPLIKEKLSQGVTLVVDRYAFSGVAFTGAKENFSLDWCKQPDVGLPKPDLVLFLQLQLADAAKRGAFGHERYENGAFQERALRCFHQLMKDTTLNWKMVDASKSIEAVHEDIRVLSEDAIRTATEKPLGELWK

A word on the Ki: it is a measure of affinity in units of concentration, obtained from inhibition or displacement. High values mean lower affinity, low ones higher affinity. Usually IC50 stands for the concentration that inhibits the measured activity by half. In the case of 5'-ethynylthymidine [5'-Et-dThd], the “accumulation of intracellular phosphorylated [14C]-dThd metabolites” value in data set [1] is “increased slightly”. The “dThd phosphorylating activity, % of untreated control” value in data set [2] is 25%; in data set [4] (25 μM, HSV-2-infected HeLa BU, 9 h post infection, 1 h labeling) it was 80%. In addition, at HSV-2 (333) dThd kinase (10 μM 5'-Et-dThd, purified enzyme, 100 μM [14C]dThd), the “inhibition of dThd kinase activity” value was 25%. For the same substance, the Ki on HSV-2 (333) dThd kinase (HSV-2 333, affinity column-purified dThd kinase, ± standard deviation) worked out at 0.38 µM. Moreover, the IC50 was 46 µM at HSV-2 (333) dThd kinase (HSV-2 333, enzyme extracts of infected HeLa BU cells, 100 μM dThd); < 10 µM and 7 µM in data set [3]; 60 µM at host dTMP kinase; 100 µM in data set [4] (HSV-2 333, intracellular [14C]dThd phosphorylation, HeLa BU cells). In addition, at HSV-2 (333) dThd kinase (with respect to dThd), the “type of inhibition (kinetic studies)” value is “competitive inhibitor”. For the same substance, the “inhibition of dThd kinase-mediated [14C]dThd phosphorylation” value in data set [4] (100 μM, HSV-2-infected HeLa BU cells, 9 h post infection) was 50%. For the same substance, the “effect on the antiviral effect of aphidicolin” value in data set [5] (0.2 μM aphidicolin with varying concentrations of 5'-Et-dThd) is given as “significantly enhanced”. Moreover, the “effect on virus yield” value in data set [5] (5'-Et-dThd by itself) is listed as “no effect”. For the same substance, in data set [5] (Table II, drug (μM as in row; None = 5'-Et-dThd alone) plus 2.5 μM 5'-Et-dThd), the “% PFU with a 5'-Et-dThd conc. of 2.5 μM” value is 97%. Also, the “% PFU with a 5'-Et-dThd conc. of 25 μM” value in data set [5] (Table II, drug (μM as in row; None = 5'-Et-dThd alone) plus 25 μM 5'-Et-dThd) is reported as 96%. For the same substance, the “% PFU with a 5'-Et-dThd conc. of 100 μM” value in data set [5] (Table II, drug (μM as in row; None = 5'-Et-dThd alone) plus 100 μM 5'-Et-dThd) is 99%; in data set [5] (Table III, aphidicolin 0.2 μM (None = 5'-Et-dThd alone) plus 100 μM 5'-Et-dThd), 100%. For the same substance, the “%PFU with a 5'-Et-dThd conc. of 5 μM” value in data set [5] (Table III, aphidicolin 0.2 μM (None = 5'-Et-dThd alone) plus 5 μM 5'-Et-dThd) worked out at 100%. For the same substance, the “%PFU with a 5'-Et-dThd conc. of 20 μM” value in data set [5] (Table III, aphidicolin 0.2 μM (None = 5'-Et-dThd alone) plus 20 μM 5'-Et-dThd) is given as 100%. Moreover, in data set [6], the “effect on mammalian host DNA synthesis” value is “no effect”.
